# Laboratory results from paper PMC12040169 (PLOS Biology, 2025).
# Test: in vitro
# Conditions: human, hela cells, % viability
row,SMILES,"viability at 28.5 h, 10 µM [%]"
1,O=C1NC(=S)S/C1=C\c1cn(-c2ccccc2)nc1-c1ccc(OCc2ccccc2)cc1 [CBK265496],79.4
2,COc1cccc(C(=O)NNC(=O)Nc2ccccc2)c1 [CBK261608],91.8
3,O=C(Cc1ccsc1)N1CCCC1c1nc2ccccc2[nH]1 (stereo not shown) [CBK283740],87.7
4,O=c1[nH]c2ccccc2nc1-c1cc(Br)ccc1NCc1ccccc1 [CBK088071],106
5,OC(CNCc1cccs1)c1ccccc1 (stereo not shown) [CBK057092],90.8
6,COc1ccc(CN2CC[C@H]3NC(=O)CNC(=O)C4(C/C=C/C[C@H]3C2)CCN(C(C)=O)CC4)cc1 [CBK292013],90.4
7,O=C(NC1CCOCC1)c1n[nH]c2c1CCC2 [CBK174626],113
8,Clc1ccc(COc2nccnc2OC2CCN(Cc3ccncc3)CC2)cc1Cl [CBK153792],107
9,O=C(O)CCc1ccc(-c2cn3ccnc3c(N3CCOCC3)n2)cc1 [CBK066166],93.6
10,CC(=O)N1CC[C@@H](CC(=O)O)[C@@H](CC2=NCCc3ccc(C(C)(C)C)cc32)C1 [CBK289165],84.4
11,CN1CCC[C@H]1C(=O)Nc1nc2c(s1)C(=O)CC(C)(C)C2 [CBK144101],98.8
12,N#Cc1c(CN2CCCC(c3noc(C4CC4)n3)C2)cn2ccccc12 (stereo not shown) [CBK305332],98.7
13,O=C(NC1CCCC1)c1ccc2c(=O)[nH]cnc2c1 [CBK287990],90.1
14,CC1(C(=O)NC2CCN(Cc3cccc(F)c3)CC2)CCCO1 (stereo not shown) [CBK282658],91.6
15,Cc1ccc2c(O)c(C(=O)NCc3cccs3)cnc2c1 [CBK159997],78.2
16,CCn1cc(C(=O)O)c(=O)c2cnc(N3CCN(C(=S)Nc4ccc5c(c4)OCO5)CC3)nc21 [CBK267930],90.6
17,CCn1cnnc1SCC(=O)Nc1ccc(CN2CCOCC2)cc1 [CBK305072],97.4
18,N#CC(C(=O)CN1CCCC1)c1ccccc1 (stereo not shown) [CBK269333],98.1
19,COC(=O)c1cn([C@H]2CO[C@H]3[C@@H]2OC[C@H]3OC(=O)Nc2ccccc2)nn1 [CBK289492],91.4
20,Cc1cc(C)n(CC2CN(C(C)C(=O)NCc3ccco3)CCO2)n1 (stereo not shown) [CBK305351],101
21,CC(C)NC(=O)C1(Cc2ccccc2-c2ccncc2)CCOCC1 [CBK284786],94.1
22,Cc1nnc(C(C)N2CCN(Cc3noc(C(C)(C)C)n3)CC2)o1 (stereo not shown) [CBK305171],85.7

row,SMILES,"viability at 28.5 h, 10 µM [%]"
1,Cc1cc(-c2cn(C)nc2C2CCCCN2C(=O)C2CCC2)on1 (stereo not shown) [CBK283403],83.7
2,Cc1cc(-n2cccn2)ccc1CN1CCCCC1CN1CCOCC1 (stereo not shown) [CBK307442],83.2
3,CCCc1n[nH]c(-c2cccc(C)c2C)c1C(=O)OCC [CBK113545],106
4,CC1=C[C@@H](CNC(=O)c2cccnc2)[C@H](C(C)C)C[C@H]1CC(=O)N1CCOCC1 [CBK289053],92.4
5,COc1ccc(CCNC(=O)N2CCN(c3ccccc3)CC2)cc1 [CBK155199],96.8
6,Cc1ccc(NC(=O)c2cncnc2)c(C)n1 [CBK200380],81.1
7,Cc1cc2nc(NC(=N)N)nc(C)c2cc1C [CBK262269],83.8
8,Cc1c(CNC(=O)c2cc(-c3ccncc3)nc3ccc(Cl)cc23)cnn1C [CBK288627],99.5
9,S=c1cc(SCc2ccccc2Cl)nc[nH]1 [CBK288496],95.2
10,O=C(NCCc1ccc(Cl)cc1)C1(Cc2ccc(-c3cccnc3)cc2)CCOCC1 [CBK285589],94.6
11,COCCn1c(CO)nnc1[C@H]1C[C@@H](NC(=O)c2ccc(F)cc2C)C1 [CBK306856],94.7
12,Cn1cc(CCNC(=O)Nc2ccc(CN3CCCC3=O)cc2)cn1 [CBK305410],107
13,Cc1cc(N2CCC(O)CC2)nc(N)n1 [CBK167265],109
14,COc1cccc(OCC(=O)NCC(c2cccs2)N2CCOCC2)c1 (stereo not shown) [CBK304664],91.6
15,COc1ccc(CNC(=O)c2cc(S(=O)(=O)N3CCCC3)cn2C)cc1 [CBK304637],95.2
16,Cc1cc(-c2nnc(SCCC(=O)Nc3ccccc3)o2)no1 [CBK268737],104
17,COc1cc(C(=O)NCCN2CCCC2)ccc1Nc1cncc(-c2ccc(O)cc2)n1 [CBK122661],96
18,CC(C)CC(=O)N1CCC(Cc2ccccc2-c2cccs2)(C(=O)NC(C)C)CC1 [CBK285898],87.3
19,CCc1nc2c(OCc3ccccc3)cccn2c1N(C)C(=O)c1ccncc1 [CBK147876],90
20,Cc1cc2nnc(SCC(=O)Nc3ccc4c(c3)OCO4)n2c2ccccc12 [CBK265926],82.8
21,CCOC(=O)CSc1nnc(-c2ccncc2)n1-c1ccccc1 [CBK263350],92
22,CC(C)C(=O)Nc1cc2ccccc2c(-c2ccc(OCc3ccccc3)c(F)c2)n1 [CBK073783],89.8

row,SMILES,"viability at 28.5 h, 10 µM [%]"
1,Cc1cc2c(cc1NC(=O)[C@@H]1C[C@@H]3C=C[C@H]1C3)n(C)c(=O)n2C [CBK281689],106
2,Brc1cn2ccnc2c(Nc2ccc3[nH]ccc3c2)n1 [CBK037449],102
3,CCCCNC(=O)c1nnc(C(=O)Nc2cccc(Cl)c2)s1 [CBK294407],87.1
4,CCc1nnc(NCC2CCCCC2)s1 [CBK075044],88.1
5,Cc1ccc(C2CCCN2C(=O)c2cccn(CC(=O)Nc3ccc(F)cc3)c2=O)cc1C (stereo not shown) [CBK286528],90.1
6,Cc1oc(C(=O)O)cc1CSCc1cc(C(=O)O)oc1C [CBK263275],101
7,Cc1cccc(Nc2nccc(-n3ccc(C)n3)n2)c1 [CBK288616],79.7
8,c1ccc(-c2cc(-c3ccccc3)n3nc(Cc4nc5nc(-c6ccccc6)cc(-c6ccccc6)n5n4)nc3n2)cc1 [CBK261017],93.1
9,COCCNc1nc(-c2cc(C(C)C)ccc2OC)ccc1C(=O)NCCNC(C)=O [CBK105985],96.6
10,CCCn1cc(CN2C3CCC2CC(O)(c2ccccc2F)C3)cn1 (stereo not shown) [CBK282664],99.3
11,CN(C)CCCN(Cc1ccco1)Cc1c[nH]nc1-c1cccs1 [CBK283198],106
12,CC(C)(C)C1CCC(=NNC(=O)c2ccc(CN3CCOCC3)cc2)CC1 (stereo not shown) [CBK018812],97.9
13,Cc1cc(C)cc(C(O)CNC2CCN(Cc3cscn3)CC2)c1 (stereo not shown) [CBK304457],94.4
14,COc1cccc(NC(=O)N(CCCO)C2CCc3ccccc32)c1 (stereo not shown) [CBK305397],95
15,O=C(NC(Cc1c[nH]c2ccccc12)C(=O)O)c1ccco1 (stereo not shown) [CBK217706],92.5
16,Cc1ccc(-c2nn(CCC#N)cc2C(=O)N2CCCC2)cc1C [CBK305974],86.8
17,O=C(CN1C2CCC1CC(O)(c1ccco1)C2)Nc1ccc(F)cc1 (stereo not shown) [CBK284062],87.6
18,O=C(NC[C@H]1O[C@@H](CC(=O)N2CCN(c3ccc(F)cc3)CC2)[C@H](O)[C@@H]1O)c1ccco1 [CBK288922],95.4
19,O=C(CN1CCOCC1)N1CCN(C(=O)c2ccc(Cl)cc2Cl)CC1 [CBK028992],97.7
20,Cc1ccc(C(=O)N2CCC(CO)CC2)cc1C [CBK083532],93.8
21,COc1ccc(S(=O)(=O)NCCNC(=O)c2cc(-c3cccnc3)cnc2NCc2ccc3c(c2)OCO3)cc1 [CBK076379],101
22,COC(=O)[C@@H](C)NC(=O)[C@@H]1CN(C(=O)NC(C)C)CCN1C(=O)C1CCCCC1 [CBK289622],90.7

row,SMILES,"viability at 28.5 h, 10 µM [%]"
1,O=C(Nc1ccc2oc(-c3cccnc3)nc2c1)c1ccc(-c2cccc([N+](=O)[O-])c2)o1 [CBK262945],106
2,CN(C)S(=O)(=O)N1CCC(C(=O)O)(c2ccccc2)CC1 [CBK286681],90.3
3,CCN1CCN(c2cc(C)nc3c(-c4ccccc4)cnn23)CC1 [CBK287793],88.4
4,COc1ccc(C(=O)O)cc1S(=O)(=O)Nc1cccc(C=Cc2ccccn2)c1 [CBK297763],110
5,O=C(C1CC2C=CC1C21CC1)N1CCC(Oc2cccc(F)c2)CC1 (stereo not shown) [CBK281525],85.4
6,Cc1nn(C)c(N2CCNCC2)c1NC(=O)Cc1c[nH]c2ccccc12 [CBK050256T],97.1
7,COc1ccc(Cn2c(=O)n(S(=O)(=O)c3ccc(C)cc3)c3ccccc32)cc1 [CBK106550],95.1
8,Cc1cc(OCc2nnc(SCC(=O)Nc3ccc(I)cc3)n2C)ccc1Cl [CBK268600],113
9,COc1ccc2oc(C(=O)NC(C)c3cn(C)nc3C)cc2c1 (stereo not shown) [CBK281573],90.9
10,CCC(=O)N1CCCc2cc(C(O)CN3CCN(c4ccc(F)cc4)CC3)ccc21 (stereo not shown) [CBK286480],95.3
11,CC(C)(CO)CNc1cncc(-c2cccs2)n1 [CBK065599],88.3
12,CCC(CO)NCc1ccc(-c2ccccc2)cc1 (stereo not shown) [CBK268082C],97.6
13,O=C(O)CCC(=O)Nc1ccccc1C(=O)N1CCCCC1 [CBK266100],99.5
14,Cc1ccc(C2C(C(=O)c3cccs3)=C(O)C(=O)N2CCN2CCOCC2)o1 (stereo not shown) [CBK264559],91.1
15,COc1ccc(Nc2nc(-c3cccnc3)cs2)c(OC)c1 [CBK126814],92.6
16,Cc1nn(-c2ccc3nnc(C)n3n2)c2c1C(c1ccccc1F)CC(=O)N2 (stereo not shown) [CBK287898],83.3
17,CN(C)c1ccc(Nc2ncnc3c2cnn3CCC#N)cn1 [CBK306231],103
18,COc1ccc(N2CCN(C(=O)CCC(=O)c3cccs3)CC2)cc1 [CBK091413],94.3
19,C#CCNC(=O)c1nn(Cc2ccc(S(=O)(=O)N(C)OC)cc2)c2ccccc12 [CBK047985],96.2
20,CS(=O)(=O)N(CC(=O)Nc1ccc(S(=O)(=O)N2CCCCC2)cc1)c1ccc2c(c1)OCO2 [CBK268189],96.4
21,Nc1nc2c(ncn2[C@H]2C[C@@H](O)[C@@H](CO)O2)c(=O)[nH]1 [CBK201294],98.1

# Same assay, conditions: human, hela cells, % viability, bulk resorufin, single well
row,SMILES,"viability at 28.5 h, 10 µM [%]"
1,CCOC(=O)N1CCC2(CC1)Oc1ccc(Cl)cc1O2 [CBK084590],94.2
